According to patent US10441562B2, “Aromatic farnesyl compound and application thereof” (INSTITUTE OF MICROBIOLOGY, CHINESE ACADEMY OF SCIENCES, priority 2015, dated 2019):
Marks after values point to notes of the source that are not given here.

Key:
[1] = target: T1, α-glucosidase (Saccharomyces cerevisiae, UniProt P53341); test: α-glucosidase inhibitory activity test in vitro; assay type: biochemical; settings: read-out: α-glucosidase inhibitory activity (IC50)
T1 construct: purchased Sigma Corporation G5003
T1 sequence (P53341 whole entry): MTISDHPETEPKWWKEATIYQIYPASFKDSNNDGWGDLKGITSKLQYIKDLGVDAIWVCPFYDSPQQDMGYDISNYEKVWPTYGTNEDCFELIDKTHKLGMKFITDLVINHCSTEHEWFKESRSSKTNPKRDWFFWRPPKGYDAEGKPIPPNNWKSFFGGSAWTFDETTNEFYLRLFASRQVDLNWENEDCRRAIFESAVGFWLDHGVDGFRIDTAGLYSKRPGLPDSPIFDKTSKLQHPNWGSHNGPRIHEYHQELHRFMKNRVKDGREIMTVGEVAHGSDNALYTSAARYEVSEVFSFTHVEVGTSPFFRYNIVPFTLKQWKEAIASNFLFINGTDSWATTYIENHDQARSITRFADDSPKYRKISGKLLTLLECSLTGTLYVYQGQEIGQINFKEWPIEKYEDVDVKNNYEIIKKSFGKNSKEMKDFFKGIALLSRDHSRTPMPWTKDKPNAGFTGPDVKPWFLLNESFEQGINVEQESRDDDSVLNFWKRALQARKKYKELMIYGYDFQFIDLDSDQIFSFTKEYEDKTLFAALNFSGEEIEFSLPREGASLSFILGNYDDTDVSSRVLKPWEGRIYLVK
Experimental: Add 25 μL α-glucosidase water solution (0.2 U/mL) and 175 μL phosphate buffer (50 mM, pH 7.0) into 25 μL different concentration of the above test solutions. The mixed solution is standed for 10 min at room temperature, and then 25 μL 4-nitrophenyl-α-D-glucopyranoside water solution (2.5 mM) is added into the mixed solution. After the solution is incubated at 37 °C for 30 min and centrifuged at 5000 rpm for 5 minutes, 150 uL supernatant is added into 96-well plates and the absorbance is detected at 405 nm.
Blank group: the test solution is replaced by 25 μL phosphate buffer (50 mM, pH 7.0); blank control group: the test solution is replaced by 25 μL phosphate buffer (50 mM, pH 7.0), meanwhile α-glucosidase water solution is replaced by 25 μL phosphate buffer (50 mM, pH 7.0); sample control group: α-glucosidase water solution is replaced by 25 μL phosphate buffer (50 mM, pH 7.0).
(§1) Repeat each of the above experiment groups for 3 times, and then average the results.
IC50=[CL(IH−50)+CH(50−IL)]/(IH−IL) CL: low concentration value; CH: high concentration value; IH: inhibition rate in high concentration; IL: inhibition rate in low concentration

[2] = target: T2, protein tyrosine phosphatase 1B (PTP-1B) (Homo sapiens, UniProt P18031); test: PTP-1B inhibitory activity test in vitro; assay type: biochemical
T2 sequence (P18031 1-435): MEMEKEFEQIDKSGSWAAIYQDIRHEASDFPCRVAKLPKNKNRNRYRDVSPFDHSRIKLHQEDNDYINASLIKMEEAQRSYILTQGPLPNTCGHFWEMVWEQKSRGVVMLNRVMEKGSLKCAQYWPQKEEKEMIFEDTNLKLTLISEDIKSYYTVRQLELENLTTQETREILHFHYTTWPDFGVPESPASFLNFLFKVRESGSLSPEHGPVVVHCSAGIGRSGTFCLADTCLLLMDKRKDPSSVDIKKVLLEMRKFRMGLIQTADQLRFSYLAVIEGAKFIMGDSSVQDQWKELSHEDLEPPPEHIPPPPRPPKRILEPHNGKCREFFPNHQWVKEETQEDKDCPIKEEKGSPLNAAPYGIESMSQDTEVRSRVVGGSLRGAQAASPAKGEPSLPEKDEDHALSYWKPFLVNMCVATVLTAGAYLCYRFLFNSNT
Experimental: Experimental procedure: the following reagents are added into 96-well plates in sequence and the mixture ratios of different groups are as followings: Test group: 50 μL compound solution+50 μL 170 μg/mL PTP-1B solution […] Blank group: 50 μL buffer solution+50 μL 170 μg/mL PTP-1B solution Background group: 50 μL compound solution+50 μL buffer solution After adding the reagents, the 96-well plate is […] for 10 min at room temperature to make the compound and the enzyme react completely. Add 50 μL 1 mM pNPP solution which is used as substrate and incubate the mixed solution at 37 °C for 30 min. Then add 50 μL 3M NaOH into each well of the plate to stop the reaction and the optical density is detected at […].

[3] = target: T3, dipeptidyl peptidase-4 (Homo sapiens, UniProt P27487); test: dipeptidyl peptidase-4 inhibitory activity test in vitro (DPP-4 inhibitor screening kit); assay type: biochemical
T3 construct: purchased
T3 sequence (P27487 whole entry, species assumed): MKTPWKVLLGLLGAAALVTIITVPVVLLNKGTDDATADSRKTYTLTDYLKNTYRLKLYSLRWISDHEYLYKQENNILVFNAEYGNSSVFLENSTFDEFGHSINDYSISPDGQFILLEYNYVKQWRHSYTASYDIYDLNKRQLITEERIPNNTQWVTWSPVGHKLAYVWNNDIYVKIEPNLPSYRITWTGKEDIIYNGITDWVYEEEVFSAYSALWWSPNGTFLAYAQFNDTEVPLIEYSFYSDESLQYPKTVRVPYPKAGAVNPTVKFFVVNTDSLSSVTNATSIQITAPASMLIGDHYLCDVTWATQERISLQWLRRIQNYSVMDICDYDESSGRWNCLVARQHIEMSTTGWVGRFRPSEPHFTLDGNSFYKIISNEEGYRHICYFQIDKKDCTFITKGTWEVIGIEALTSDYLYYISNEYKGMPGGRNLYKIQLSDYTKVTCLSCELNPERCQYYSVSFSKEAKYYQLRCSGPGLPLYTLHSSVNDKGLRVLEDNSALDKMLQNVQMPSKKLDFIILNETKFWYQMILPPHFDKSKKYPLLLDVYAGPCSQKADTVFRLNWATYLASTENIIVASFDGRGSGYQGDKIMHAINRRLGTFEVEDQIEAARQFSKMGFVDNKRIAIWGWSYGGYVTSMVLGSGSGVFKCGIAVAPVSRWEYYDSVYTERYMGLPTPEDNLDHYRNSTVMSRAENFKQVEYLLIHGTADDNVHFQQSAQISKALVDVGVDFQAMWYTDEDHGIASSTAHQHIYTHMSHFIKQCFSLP
Text: The above compounds are detected by DPP-4 inhibitor screening kit.

[4] = target: aldose reductase (Homo sapiens, UniProt P15121); test: aldose reductase inhibitory activity test in vitro; assay type: biochemical
Experimental: Experimental procedure: the following reagents are added into 96-well plates in sequence and the mixture ratios of different groups are as followings:
Test group: 10 μL compound solution+25 μL (0.1 mM) NADPH solution+25 μL PBS buffer solution+15 μL aldose reductase diluent
Blank group: 25 μL (0.1 mM) NADPH solution+35 μL PBS buffer solution+15 μL aldose reductase diluent
Background group: 25 μL (0.1 mM) NADPH solution+60 μL PBS buffer solution+15 μL aldose reductase diluent
After adding the reagents, the 96-well plate is standed for 10 min at room temperature to make the compound and the enzyme react completely. Add 25 μL 10 mM D, L glyceraldehyde solution which is used as substrate into the groups except for background group, and incubate the solution at 37 °C for 30 min. Then detect the optical density of each well at 340 nm.

[5] = target: T4, HMG-CoA reductase (Homo sapiens, UniProt P04035); test: HMG-CoA reductase inhibitory activity test in vitro; assay type: biochemical
T4 sequence (P04035 426-888 limits assumed): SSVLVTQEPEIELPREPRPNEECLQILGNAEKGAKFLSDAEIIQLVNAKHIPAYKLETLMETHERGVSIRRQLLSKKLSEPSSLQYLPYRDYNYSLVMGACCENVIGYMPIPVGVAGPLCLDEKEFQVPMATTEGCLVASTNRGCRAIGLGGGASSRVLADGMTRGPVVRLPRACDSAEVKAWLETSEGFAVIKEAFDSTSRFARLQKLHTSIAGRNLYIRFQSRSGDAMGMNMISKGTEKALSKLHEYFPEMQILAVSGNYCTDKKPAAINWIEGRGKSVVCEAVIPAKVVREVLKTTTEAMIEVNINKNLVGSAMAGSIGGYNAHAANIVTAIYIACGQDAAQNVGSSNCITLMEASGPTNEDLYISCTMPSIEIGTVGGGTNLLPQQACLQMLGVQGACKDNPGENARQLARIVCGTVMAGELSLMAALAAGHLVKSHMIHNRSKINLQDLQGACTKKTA
Experimental: Add 25 μL HMG-CoA reductase water solution (0.2 U/mL), 25 μL NADPH water solution (0.2 U/mL) and 24 μL phosphate buffer (50 mM, pH 7.0) into 1 μL different concentration of the above test solution. The mixed solution is standed for 10 min at room temperature, and then 25 μL HMG-CoA is added into the mixed solution. After the solution is incubated at 37∞ for 30 min and centrifuged at 5000 rpm for 5 minutes, 80 uL supernatant is added into 96-well plates and the absorbance is detected at 550 nm.
as §1

[6] = test system: hyperglycemia mice induced by alloxan; test: blood sugar of hyperglycemia mice induced by alloxan; assay type: in vivo, Kunming species mice
Experimental: Blood glucose determination kit (batch number 20140403) is purchased from Nanjing Jiancheng Bioengineering Institute. Methods: after being acclimatized for 1 week, 10 randomly selected Kunming species male mice of SPF level of 20±2 g are used as control group, while the other 50 mice are given alloxan to make model by intraperitoneal injection according to body weight 220 mg/kg.

[7] = test system: hyperglycemia KK-A^y mice; test: blood sugar of hyperglycemia KK-A^y mice; assay type: in vivo; design: blood sugar: unit not given here; settings: metformin 8 g/kg, group 11
Experimental: (§2) Materials: accurately weigh the 2 compounds S13 and S28 discussed in example 2, and then add 0.5% CMC-Na to make the solution of 5 mg/ml used for activity test. KK-A^y mice are purchased from Chinese Academy of Medical Sciences & Peking Union Medical College Institute of Animal Studies. Experiments are carried out after adapting to the environment (T=20-24° C., constant humidity: 50-60%, 12 hours light exposure (8:00-20:00), soundproof, free feeding and drinking) for 1 week. Glucometer is purchased from Roche.
(§3) Methods: 10 male C57 mice of 6-8 weeks of 20-22 g are used as normal control group (1). Detect the fasting glucose of male KK-A^y mice, which are 6-8 weeks with the weight of 28-32 g, and divide them into different groups according to the blood sugar level and body weight: (2) model control group, (3) which is administered by compound S13 with the dose of 1 mg/kg, (4) which is administered by compound S13 with the dose of 5 mg/kg, (5) which is administered by compound S13 with the dose of 10 mg/kg, (6) which is administered by compound S13 with the dose of 20 mg/kg, (7) which is administered by compound S28 with the dose of 1 mg/kg, (8) which is administered by compound S28 with the dose of 5 mg/kg, (9) which is administered by compound S28 with the dose of 10 mg/kg, (10) which is administered by compound S28 with the dose of 20 mg/kg, (11) which is administered by metformin with the dose of 8 g/kg, (12) which is administered by compound S13 with the dose of 2.5 mg/kg and metformin with the dose of 4 g/kg, (13) which is administered by compound S13 with the dose of 5 mg/kg and metformin with the dose of 4 g/kg, (14) which is administered by compound S28 with the dose of 2.5 mg/kg and metformin with the dose of […], (15) which is administered by compound S28 with the dose of 5 mg/kg and metformin with the dose of […]. Each group has 8 mice, and is administrated successively for 3 weeks. Model control group is given with equal amounts of 0.5% CMC-Na.
1) Effects of drugs on blood sugar: at the first day after administration, the mice are fasted for 2 hours and blood is collected (0 h) to detect the fasting blood sugar. After the compound is given to the mice by intragastric administration for 30 min, blood is collected from tip of tail to detect the blood sugar level.
(§4) 2) Effects on body weight and blood sugar: the body weight of mice are recorded at the 2th, 5th, 8th, 11th, 14th, 17th, 20th day after administration, and blood is collected from tip of tail to detect the blood sugar level (see table 10).

[8] = test system: hyperglycemia KK-A^y mice; test: glucose tolerance test (OGTT) in hyperglycemia KK-A^y mice; assay type: in vivo; settings: OGTT 12th day, glucose 2.0 g/kg oral, metformin 8 g/kg, group 11
Experimental: as §2, with “KK-A^y” for “Materials: accurately weigh the 2 compounds S13 and S28 discussed in example 2, and then add 0.5% CMC-Na to make the solution of 5 mg/ml used for activity test. KK-A^y”
Each group has 8 mice, and is administrated successively for 3 weeks. Model control group is given with equal amounts of 0.5% CMC-Na.
3) Glucose tolerance test (OGTT): glucose tolerance is detected at the 12th day after administration. The mice are fasted for 12 hours and blood is collected (0 h). After being given with glucose (2.0 g/kg) by oral administration, blood is collected from tip of tail to detect the blood sugar level after 30 min, 60 min and 120 min respectively (see table 11).

[9] = test system: hyperglycemia KK-A^y mice; test: blood lipid and liver function of hyperglycemia KK-A^y mice; assay type: in vivo; settings: 3 weeks, metformin 8 g/kg, group 11
Experimental: as §2, §3
4) After the last administration, the mice are executed under anesthesia, and blood is taken to be centrifuged at 3000 rpm in 4[…]. Serum total cholesterol, low density lipoprotein and triglyceride TG are detected.

[10] = body weight of hyperglycemia KK-A^y mice; assay type: in vivo; settings: metformin 8 g/kg, group 11
Experimental: as §2, §3, §4

With `CC(C)=CCC/C(C)=C/CCC1=C[C@@H](c2ccccc2)OC1=O` [S16, (S,E)-3-(4,8-dimethylnona-3,7-dien-1-yl)-5-phenylfuran-2(5H)-one] as the molecule, how does the IC50 [1] read?
The IC50 was 0.23 µM.

What about the IC50 [2] of the same molecule?
The IC50 was 12.5 µM.

What about the IC50 [3] of the same molecule?
The IC50 was 12 µM.

What about the IC50 [4] of the same molecule?
Its IC50 is 58.2 µM.

And the IC50 [5]?
The IC50 was 3.6 µM.

And the “blood sugar after administration” value ([6]; 50 mg/kg intragastric, 10 days, fasted 10 hours)?
The value was 6.12** mmol/L.

What about the “blood sugar before administration” value ([6]; before administration) of the same molecule?
Its value is 15.25 mmol/L.

For `CN(C)C(=N)N=C(N)N` [metformin, reference compound], which “blood sugar at the 1st day, 0” value ([7]; 1st day 0 h) is on record?
The value was 14.9.

And the “blood sugar at the 1st day, 30 min” value ([7]; 1st day 30 min after intragastric administration)?
The value was 9.85.

And the blood sugar ([7]; 2st day)?
The blood sugar was 13.05.

What about the blood sugar ([7]; 5st day) of the same molecule?
Its blood sugar is 13.9.

What about the blood sugar ([7]; 8st day) of the same molecule?
The blood sugar was 13.8.

What about the blood sugar ([7]; 11st day) of the same molecule?
The blood sugar was 13.5.

And the blood sugar ([7]; 14st day)?
The blood sugar was 13.7.

What about the blood sugar ([7]; 17st day) of the same molecule?
Its blood sugar is 13.5.

And the blood sugar ([7]; 20st day)?
Its blood sugar is 13.24.

What about the “glucose tolerance, blood sugar 0 min” value ([8]; 0 min) of the same molecule?
The value was 6.5**.

And the “glucose tolerance, blood sugar 30 min” value ([8]; 30 min)?
The value was 12.8**.

What about the “glucose tolerance, blood sugar 60 min” value ([8]; 60 min) of the same molecule?
Its value is 10.47**.

What about the “glucose tolerance, blood sugar 120 min” value ([8]; 120 min) of the same molecule?
Its value is 7.41**.

And the ALT [9]?
The ALT was 89.6 U/L.

And the AST [9]?
The AST was 137.5 U/L.

And the HDL-C [9]?
The HDL-C was 23.1 mg/dL.

What about the LDL-C [9] of the same molecule?
Its LDL-C is 72 mg/dL.

What about the SOD [9] of the same molecule?
The SOD was 3.7 U/L.

What about the TC [9] of the same molecule?
Its TC is 176* mg/dL.

And the TG [9]?
The TG was 578 mg/dL.

What about the Body weight ([10]; 2st day) of the same molecule?
Its Body weight is 30.7 g.

What about the Body weight ([10]; 5st day) of the same molecule?
Its Body weight is 30.53 g.

And the Body weight ([10]; 8st day)?
The Body weight was 30.8 g.

And the Body weight ([10]; 11st day)?
The Body weight was 30.6 g.

What about the Body weight ([10]; 14st day) of the same molecule?
The Body weight was 30.7 g.

And the Body weight ([10]; 17st day)?
Its Body weight is 30.8 g.

And the Body weight ([10]; 20st day)?
Its Body weight is 30.5 g.
